Laboratory results taken from publication PMC3688580, “Crystal Structure, SAXS and Kinetic Mechanism of Hyperthermophilic ADP-Dependent Glucokinase from Thermococcus litoralis Reveal a Conserved Mechanism for Catalysis” (PLoS ONE, 2013).

Key:
[1] = biological target: T1, TlGK (ADP-dependent glucokinase from Thermococcus litoralis) (Thermococcus litoralis, UniProt Q7M537); assay: X-ray crystal structure […] Å; SAXS; assay type: binding
T1 construct: gene glkA; recombinant, purified from LB culture as in Merino et al. (heat shock, ammonium sulfate, two chromatographic steps); two-domain enzyme
T1 sequence (Q7M537 whole entry): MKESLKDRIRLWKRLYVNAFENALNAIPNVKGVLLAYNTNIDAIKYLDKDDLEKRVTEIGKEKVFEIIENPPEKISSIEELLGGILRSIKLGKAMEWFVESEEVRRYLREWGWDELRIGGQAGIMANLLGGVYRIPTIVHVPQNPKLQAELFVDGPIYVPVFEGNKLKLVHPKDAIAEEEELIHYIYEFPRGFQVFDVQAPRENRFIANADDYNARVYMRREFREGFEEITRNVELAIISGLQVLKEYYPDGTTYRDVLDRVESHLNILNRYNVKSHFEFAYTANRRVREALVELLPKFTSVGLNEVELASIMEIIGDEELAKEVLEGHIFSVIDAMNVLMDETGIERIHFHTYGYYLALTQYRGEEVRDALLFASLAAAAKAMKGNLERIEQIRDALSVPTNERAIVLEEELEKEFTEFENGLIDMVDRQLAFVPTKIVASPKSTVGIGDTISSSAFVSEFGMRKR

[2] = biological target: T1, TlGK (ADP-dependent glucokinase from Thermococcus litoralis); assay: product inhibition, discontinuous pyruvate kinase / lactate dehydrogenase assay; assay type: biochemical; conditions: mixed type vs Mg·ADP and vs D-glucose; read-out: inhibition constants
[3] = biological target: T1, TlGK (ADP-dependent glucokinase from Thermococcus litoralis); assay: isothermal titration calorimetry (data not shown); also SAXS; assay type: binding; conditions: absence of D-glucose; active site; MgADP
[4] = biological target: T1, TlGK (ADP-dependent glucokinase from Thermococcus litoralis); assay: product inhibition, G6PDH-coupled assay; assay type: biochemical; conditions: competitive vs Mg·ADP, mixed vs D-glucose; Mg·AMP; pH 7.8; 40 °C

In the case of `Nc1ncnc2c1ncn2[C@@H]1O[C@H](COP(=O)(O)OP(=O)(O)S)[C@@H](O)[C@H]1O` (some centres unmarked) [ADPβS], the “X-ray crystal structure 2.58 Å; SAXS” value ([1]; nonhydrolyzable ADP analog with D-glucose and Mg, beta-phosphate lacked density, modelled as AMP) is reported as 4B8S (TlGK·Mg·ADPβS·D-glucose).

`O=P(O)(O)OC[C@H]1OC(O)[C@H](O)[C@@H](O)[C@@H]1O` (stereo partly drawn) [D-glucose-6-P] showed a Ki [2] of 782 µM.

`OC[C@H]1OC(O)[C@H](O)[C@@H](O)[C@@H]1O` (stereo partly drawn) [D-glucose] was tested, and the “X-ray crystal structure 2.58 Å; SAXS” value ([1]; ternary complex with Mg·ADPβS, active site) was 4B8S (TlGK·Mg·ADPβS·D-glucose).

`Nc1ncnc2c1ncn2[C@@H]1O[C@H](COP(=O)(O)OP(=O)(O)O)[C@@H](O)[C@H]1O` [Mg·ADP] was tested, and the dissociation constant [3] was “isothermal titration calorimetry experiments demonstrated binding of MgADP to the enzyme”.

For `Nc1ncnc2c1ncn2[C@@H]1O[C@H](COP(=O)(O)O)[C@@H](O)[C@H]1O` [Mg·AMP], the inhibition constants [4] was “Mg·AMP behaves as a competitive inhibitor of Mg·ADP”.
